Measured values published in US20220142160A1, “METHOD OF INHIBITING OR REDUCING BIOFILM IN A PETROLEUM PRODUCTION PROCESS” (KEMIRA OYJ, priority 2019, published 2022).
“And” between values parts separate entries of the source, which are not always exact repeats. Identical values can stand only once.

What was measured:
Format in all cases: cell-based, mixed culture of oil field bacteria
[1] = system: Sulphate Reducing Bacteria (SRB); assay: Sessile bacterial counts from biofilm scraped off glass slides, SRB; conditions: slide scraped day 6, 3.5% nutrient brine with dodecane, 32° C., 75 rpm
Procedure: (§1) A mixed culture of oil field bacteria with Sulphate Reducing Bacteria (SRB), Acid Producing Bacteria (APB), and General Heterotrophic Bacteria (GHB) that came from an oil field system and had been frozen in glycerol maintained at −80° C. was used to study the effect of the test chemical compounds on biofilm formation and control thereof.
(§2) Biofilm tests were performed in 3.5 weight-% nutrient brine (NB) solution with minimal nutrients and a mixture of dodecane isomers, which are customary in oil field production waters and storage tanks.
(§3) The oilfield bacteria consortia was inoculated into the 3.5 weight-% nutrient brine solution and allowed to acclimate overnight at 32° C. in bulk. After acclimation, the solution was divided into 250 mL Pyrex bottles to contain 200 mL of the inoculated 3.5 weight-% nutrient brine and 25 mL of dodecane. Biofilms were grown on glass slides as removable attachment surfaces. Bottles were incubated at 32° C. with a rotary shaking (75 rpm) providing medium flow in each container.
(§4) Reactors each containing 200 mL of 3.5% nutrient brine were inoculated with the oilfield bacterial consortia and 25 mL of dodecane was treated with different amounts of the chemical compounds to be tested. A nitrogen blanket was added to the top of each reactor to minimize the oxygen content and allow a beneficial environment for anaerobic bacterial growth. […]

[2] = system: biofilm of mixed oilfield consortia; assay: Quantification of formed biofilm, weight gain of glass slides; set-up: average weight gain of Slides A and B: unit: mg; conditions: for average weight gain of Slides A and B: day 6; for Slide B weight gain: slide removed day 6, scraped at 1 cm^2, then dried and weighed; for Slide A weight gain: slide removed day 6, dried and weighed without further manipulation
Procedure: as §1, §2, §3
Two glass slides were added to each reactor bottle as described above and below and were removed at the end of the 6-day test for observation of biofilm accumulation, with the following considerations. For biofilm control experiments comprising biofilm removal from glass slides in 3.5% nutrient brine media inoculated with the mixed oilfield bacterial cultures and dodecane, biofilm was grown without addition of any test chemical compound to be tested in the control. In the reactors containing the test chemical compound, they were re-dosed daily for 5 days. A nitrogen blanket was added to each reactor after each dosing.
As described above, two glass slides were added to each reactor bottle. One was used for bacterial counts and the second was used to observe for biofilm accumulation. The second glass slide used to observe for growth was rinsed with deionized water, dried for 20 hours at 70° C., weighed and photographed. The weight values shown in the following tables are weights from 3 replicate reactor bottles. All weight values are given as actual measured values of the glass slides.
Table 3 presents results related to the effect on biofilm biomass of Compound A and AMA-324 dosing on the mixed oilfield consortia in 3.5 weight-% nutrient brine with dodecane at 32° C. and 75 rpm. Compound A was dosed daily for 5 days. AMA-324 was dosed at initial set-up only. Two glass slides were each weighed and added to each test container at set-up. After dosing for 5 days, at day 6, the slides were removed for analysis. Slide A was dried and weighed without further manipulation. Slide B was scrapped at 1 cm^2 with a sterile wooden stick into sterile phosphate buffer solution for bacterial counts. The scraped glass slide was then dried and weighed.

[3] = system: mixed oilfield bacterial consortia; assay: Biocidal activity on mixed oilfield bacterial consortia (bacterial counts)
Procedure: as §1, §2, §3, §4

biofilm biomass = assay: Optical density measurements of biofilm biomass; conditions: data not shown
[4] = system: Sulphate Reducing Bacteria (SRB); assay: Bacterial growth control test, planktonic bacterial counts, SRB; conditions: 75 ppm AMA-324 (active ingredient), sampled day 6; 3.5% nutrient brine with dodecane, 32° C., 75 rpm
Procedure: as §1, §2, §3, §4

[5] = system: Acid Producing Bacteria (APB); assay: Bacterial growth control test, planktonic bacterial counts, APB; conditions: 75 ppm AMA-324 (active ingredient), sampled day 6; 3.5% nutrient brine with dodecane, 32° C., 75 rpm
Procedure: as §1, §2, §3, §4

[6] = system: General Heterotrophic Bacteria (GHB); assay: Bacterial growth control test, planktonic bacterial counts, GHB; conditions: 75 ppm AMA-324 (active ingredient), sampled day 6; 3.5% nutrient brine with dodecane, 32° C., 75 rpm
Procedure: as §1, §2, §3, §4

[7] = 2 ppm Compound A dosed daily for 5 days
[8] = 5 ppm Compound A dosed daily for 5 days
[9] = 75 ppm AMA-324 dosed at initial set-up only

| Structure (SMILES) | Sessile Bacterial Counts/mL SRB bacterial ([1]; 5.0 ppm Compound A dosed daily for 5 days) [Counts/mL] | average weight gain of Slides A and B [2, 7] | Slide B weight gain [2, 7] | average weight gain of Slides A and B [2, 8] | Slide A weight gain [2, 8] | biofilm formation (weight of slides versus control or AMA-324) ([2]; Table 3 results, 1 to 5 ppm dosed daily for 5 days) | biocidal activity (bacterial counts as compared to the control) ([3]; dosage range of 1 ppm to 5 ppm, mixed oilfield bacterial consortia, anaerobic environment) | amount of biofilm biomass by optical density measurements (biofilm biomass) | Planktonic Bacterial Counts/mL SRB bacteria [4] [Counts/mL] | Planktonic Bacterial Counts/mL APB bacteria [5] [Counts/mL] | Planktonic Bacterial Counts/mL GHB bacteria [6] [Counts/mL] | Sessile Bacterial Counts/mL SRB bacterial ([1]; 75 ppm AMA-324 (active ingredient)) [Counts/mL] | average weight gain of Slides A and B [2, 9] | Slide A weight gain [2, 9] | Slide B weight gain [2, 9] | biocidal activity (bacterial counts as compared to the control) ([3]; dosage of 75 ppm active ingredient alone) |
| --- | --- | --- | --- | --- | --- | --- | --- | --- | --- | --- | --- | --- | --- | --- | --- | --- |
| Cc1ccc(S(=O)(=O)C=CC#N)cc1 [Compound A, 3-[(4-methylphenyl)sulfonyl]-2-propenenitrile] | 1.90E+07 | 0.22 and 0.40 and 0.20 | 0.15 mg and 0.2 mg and 0.3 mg | 0.65 and 0.50 and 0.88 | 0.7 mg and 0.75 mg and 0.85 mg | very effectively reduced biofilm formation | did not act as a biocidal agent | decreased the amount of biofilm biomass |  |  |  |  |  |  |  |  |
| CN1CSC(=S)N(C)C1 [AMA-324, Tetrahydro-3,5-dimethyl-2H-1,3,5-thiadiazine-2-thione, reference compound] |  |  |  |  |  |  |  |  | <0.3 | <0.3 | <0.3 | <0.6 | 1.60 and 2.05 and 1.85 | 1.35 mg and 1.95 mg and 1.6 mg | 1.85 mg and 2.15 mg and 2.1 mg | acted as a biocide |
